{"source": "patent US20060020029A1", "about": "“Pharmaceutical compositions from ethnobotanicals” (priority 2004, published 2006)", "key": {"in vitro [1]": {"assay": "in vitro", "details": "human"}, "RSV B": {"tested_on": "RSV B", "assay": "CPE assay, RSV-B in Hep-2 cells", "assay_type": "cell-based, respiratory syncytial virus"}, "RSV-Long [2]": {"tested_on": "RSV-Long", "assay": "Time of addition, CPE assay", "assay_type": "cell-based, respiratory syncytial virus", "details": "human respiratory syncytial virus", "method": "Determine the Time of Addition for EB Fractions. […] This activity is related to the life cycle of the virus and the step in the cycle where the compounds act. In this example, experiments were performed to investigate the effect of the time of addition of EB fractionated products on anti-RSV activity.\nMechanism of action studies were performed as follows. Mechanism of action studies were performed using CJ4-16-4 in a CPE assay with Hep-2 cells."}, "RSV A2": {"tested_on": "RSV A2", "assay": "Cotton rat RSV infection model, pulmonary titer", "quoted_text": "All groups consisted of four randomly selected cotton rats. All test materials were administered intraperitoneally with once daily dosing. The placebo group was administered distilled water at volumes and schedules identical to the other groups receiving investigational test articles. In general, timing of administration of ribavarin to the ribavarin-treated group paralleled that of the other treatment groups except that initiation of dosing was on Day 1 for Experiments 1 and 2 and Day 0 for Experiment 3. The dose of ribavarin was 90 mg/kg/day in Experiments 1 and 3 and 180 mg/kg/day in Experiment 2. All animals were inoculated intranasally with approximately 100 median cotton rat infectious doses (CRID50) of RSV A2 on Day 0. Experiments were terminated on either Day 3 or 4 post-infection. […] On the day that the experiment was terminated, all CRs were sacrificed using CO2 to asphyxiate the animals. The lungs from the animals were subsequently removed. The lungs of sacrificed animals were removed, rinsed in sterile phosphate-buffered saline (PBS; pH 7.2) and weighed. Each set of lungs was then transpleurally lavaged using 3 ml of 2% FCS-MEM media. The resulting lung fractions were kept on ice until they were assayed for RSV. The lung fractions of animals from each group were tested for the levels of RSV present."}, "RSV [3]": {"tested_on": "RSV", "assay": "Limited pretreatment of host cells, CPE assay", "assay_type": "cell-based, respiratory syncytial virus", "details": "removed before infection", "method": "A limited pretreatment of host cells with EB fractions was investigated as follows. […] The cells were incubated in fresh medium without the test article. After 7 days, the viral inhibition was evaluated using CPE assay protocol."}, "RSV [4]": {"tested_on": "RSV", "assay": "Viral yield assay (VYA)", "assay_type": "cell-based, respiratory syncytial virus", "method": "The materials and methods used for VYA are as follows. […] Each concentration of the test articles or control drug was tested in triplicate wells. […] The aliquots from each of the eight wells of a given column were transferred to the first column of a fresh 96-well monolayer culture of Hep-2 cells. The contents were mixed and serially diluted across the remaining columns of the secondary plate. Each column of the original primary plate was diluted across a separate plate in this manner. The cultures were incubated for 7 additional days, and the end point was monitored by CPE assay as described above."}, "RSV-Long [5]": {"tested_on": "RSV-Long", "assay": "Plaque reduction assay (PRA)", "assay_type": "cell-based", "details": "human respiratory syncytial virus, HEp-2; Table 3, plaque reduction assay", "method": "The materials and methods used for PRA are as follows. […] The overlay was prepared by mixing 1 part of 1.2% SeaPlaque and 1 part 2×MEM containing 4% FBS, plus appropriate concentrations of each EB fraction or ribavirin. Each concentration of the EB fraction or ribavirin was tested in duplicate wells. After 7 days, the agarose was carefully removed and cells were rinsed twice with 2 ml of PBS. The cell monolayer was fixed using 0.2% crystal violet in 20% methanol at room temperature. After 30 minutes, the fixer was removed by washing with deionized water, and the plates were air-dried prior to counting plaques. The number of plaques obtained for each fraction or ribavirin was expressed as a percentage of the control. The percentage values obtained were used to calculate IC50 values."}, "RSV (Long strain)": {"tested_on": "RSV (Long strain)", "assay": "CPE assay, RSV-Long in Hep-2 cells", "assay_type": "cell-based, respiratory syncytial virus"}, "RSV-Long [6]": {"tested_on": "RSV-Long", "assay": "Viral RNA analysis (RiboGreen)", "assay_type": "cell-based, respiratory syncytial virus", "details": "for RNA Concentration: three days", "method": "The method for analysis of viral RNA is as follows. Six well plates were infected with 1 ml stock of RSV-Long (10×TCID50) diluted 1:20 in infection medium (DMEM+2% FBS). The plates were incubated in 37° C. incubators for 60 min, after which the inoculum was removed and the plates were rinsed. […] Each concentration was added in duplicate. […] After three days, the culture supernatants were transferred into clean conical tubes and subjected to centrifugation at low speed to remove cell debris. […] RNA was extracted using a commercial RNA extraction kit purchased from Epicentre Technologies (Madison, WI). The procedure was performed according to the manufacturer's instructions, and samples were stored at −20° C. The level of viral RNA in each sample was determined using the RiboGreen® RNA quantitative kit (Molecular Probes, Eugene, Oreg.) according the manufacturer's instructions."}, "in vitro [7]": {"assay": "in vitro", "details": "African green monkey"}, "[8]": {"tested_on": "Herpes simplex virus type 1 (MacIntyre strain)", "assay": "CPE assay, HSV-1 specificity", "assay_type": "cell-based", "details": "CPE assay with MDCK or Vero cells", "method": "(§1) To determine whether the fractions are specific RSV inhibitors rather than general antiviral agents, the inventors tested them against influenza type A/Shangdong/09/93 (H3N2), herpes simplex type 1 (MacItyre), and herpes simplex type 2 (MS) using the CPE assay system.\n(§2) CJ4-16-4 was tested using influenza type A, herpes simplex virus type 1, and herpes simplex virus type 2 using the CPE assay with MDCK or Vero cells."}, "[9]": {"tested_on": "RSV-Long (Cotton Rat adapted strain)", "assay": "CPE assay, RSV-Long cotton rat adapted strain", "assay_type": "cell-based, respiratory syncytial virus", "details": "Hep-2 cells, CPE assay"}, "[10]": {"tested_on": "Influenza A-Shangdong/09/93 (H3N2)", "assay": "CPE assay, influenza A specificity", "assay_type": "cell-based, influenza type A", "details": "CPE assay with MDCK or Vero cells", "method": "as §1, §2"}, "RSV-A2": {"tested_on": "RSV-A2", "assay": "CPE assay, RSV-A2 in Hep-2 cells", "details": "Hep-2 cells, CPE assay", "quoted_text": "The cell line was propagated in MEM supplemented with 10% heat-inactivated fetal bovine serum (FBS) containing 100 μg/ml of antibiotics (streptomycin/penicillin). […] The overnight medium (MEM containing 10% FBS) was removed, and wells were rinsed twice with 1× phosphate buffer saline (PBS, 200 μl) before adding 10×TCID50 of RSV suspension in fresh medium (MEM plus 2% FBS) to each well, except for cell only wells. […] CellTiter 96 Aqueous Non-Radioactive Cell Proliferation Assay (Promega) was used to monitor the antiviral activity following the manufacturer's instruction. After incubation, the cells were rinsed twice with 200 μl of 1×PBS prior to the addition of 100 μl of fresh medium (MEM plus 10% FBS). […] The extent of cell viability was measured at 490 nm using an ELISA reader, and the absorbance was used to calculate percent inhibition. Antiviral activity of each EB fraction or ribavirin is expressed as IC50, which represents the concentration of the test substance required to reduce the virus infection (as measured by the destruction of the host cells) by 50%.\nHep-2 cells were used in the CPE assay to determine anti-RSV properties."}, "[11]": {"tested_on": "Herpes simplex virus type 2 (MS-strain)", "assay": "CPE assay, HSV-2 specificity", "assay_type": "cell-based", "details": "CPE assay with MDCK or Vero cells", "method": "as §1, §2"}, "Hep-2 cells": {"tested_on": "Hep-2 cells", "assay": "Cytotoxicity (MTS) in uninfected Hep-2 cells", "details": "isolated compounds"}, "MDCK cells": {"tested_on": "MDCK cells", "assay": "Cytotoxicity in MDCK cells", "details": "isolated compounds"}, "Vero cells": {"tested_on": "Vero cells", "assay": "Cytotoxicity (MTS) in uninfected Vero cells", "details": "isolated compounds"}, "[12]": {"details": "human respiratory syncytial virus, HEp-2, Table 2, extracted fractions, average of two or three experiments"}, "[13]": {"details": "90 mg/kg/day B.I.D i.p. D0-D3, water, harvest day 4"}}, "note": "Several values for one entry are separate records, joined by “and”; a condition that tells them apart may be missing. Identical values can stand only once. Like-named read-outs stand apart in the source and are kept apart here.", "data": [{"smiles": "NC(=O)c1ncn([C@@H]2O[C@H](CO)[C@@H](O)[C@H]2O)n1", "note": "[Ribavirin]", "values": [{"measurement": "CC50 at 7 days", "setting": "in vitro [1]", "value": "76.4 ± 4.4", "unit": "µg/mL"}, {"measurement": "IC50", "setting": "RSV B; [12]", "value": "3.2 ± 0.5", "unit": "µg/mL"}, {"measurement": "IC50", "setting": "RSV-Long [2]; addition 0 h, 10×TCID50 RSV-Long, Hep-2", "value": "3.6 ± 0.36", "unit": "µg/mL"}, {"measurement": "IC50", "setting": "RSV-Long [2]; addition +7 h post-infection", "value": "3.9 ± 0.64", "unit": "µg/mL"}, {"measurement": "IC50", "setting": "RSV-Long [2]; addition +26 h post-infection", "value": "4.43 ± 0.88", "unit": "µg/mL"}, {"measurement": "Reduction", "setting": "RSV A2; 90 mg/kg/day B.I.D i.p. D0-D3, vs placebo", "value": 2.9, "unit": "Log 10"}, {"measurement": "RSV Pulmonary Titer Mean ± SD", "setting": "RSV A2; [13]", "value": "1.5 ± 1.8", "unit": "log10/g lung"}, {"measurement": "RSV Pulmonary Titer in individual CR (A-D)", "setting": "RSV A2; [13]", "value": "2.8 log10/g lung and 3.3 log10/g lung and 0 log10/g lung (2×)"}, {"measurement": "reduction of mean viral titer", "setting": "RSV A2; Experiment 1", "value": 2.5, "unit": "logs"}, {"measurement": "RSV pulmonary Mean Titers ± SD", "setting": "RSV A2; Experiment 1: 100 mg/kg/day i.p. (ribavirin 90 mg/kg/day), harvest Day 4", "value": "3.1 ± 0.29", "unit": "log 10"}, {"measurement": "reduction of mean viral titer", "setting": "RSV A2; Experiment 2", "value": 2.5, "unit": "logs"}, {"measurement": "RSV pulmonary Mean Titers ± SD", "setting": "RSV A2; Experiment 2: 100 mg/kg/day i.p. from Day -1 (ribavirin 180 mg/kg/day), harvest Day 3", "value": "2.3 ± 0.4", "unit": "log 10"}, {"measurement": "reduction of mean viral titer", "setting": "RSV A2; Experiment 3", "value": 2.5, "unit": "logs"}, {"measurement": "RSV pulmonary Mean Titers ± SD", "setting": "RSV A2; Experiment 3: 250 mg/kg/day i.p. from Day -1 (ribavirin 90 mg/kg/day), harvest Day 3", "value": "2.2 ± 1.5", "unit": "log 10"}, {"measurement": "Overall Mean Titer", "setting": "RSV A2; three experiments", "value": "2.53 ± 0.73", "unit": "log 10"}, {"measurement": "reduction of overall mean viral titer", "setting": "RSV A2; three experiments", "value": 2.5, "unit": "logs"}, {"measurement": "animals with no detectable virus", "setting": "RSV A2; three experiments combined", "value": "1 out of 12"}, {"measurement": "IC50", "setting": "RSV [3]; human respiratory syncytial virus, pre-treatment time 4 hrs, read-out: IC50", "value": "> 50", "unit": "µg/mL"}, {"measurement": "IC50", "setting": "RSV [3]; pre-treatment time 0 hrs", "value": ">50", "unit": "µg/mL"}, {"measurement": "IC50", "setting": "RSV [3]; pre-treatment time 8 hrs", "value": ">50", "unit": "µg/mL"}, {"measurement": "IC50", "setting": "RSV [3]; pre-treatment time 24 hrs", "value": ">50", "unit": "µg/mL"}, {"measurement": "Mean Titer", "setting": "RSV [4]; 3.1 μg/ml", "value": 3, "unit": "log 10"}, {"measurement": "Reduction of viral titer", "setting": "RSV [4]; 3.1 μg/ml", "value": 1, "unit": "log10"}, {"measurement": "Mean Titer", "setting": "RSV [4]; 25.0 μg/ml", "value": 2, "unit": "log 10"}, {"measurement": "Reduction of viral titer", "setting": "RSV [4]; 25.0 μg/ml", "value": 2, "unit": "log10"}, {"measurement": "IC50", "setting": "RSV-Long [5]", "value": 3.84, "unit": "µg/mL"}, {"measurement": "IC50", "setting": "RSV (Long strain); [12]", "value": "3.8 ± 0.2", "unit": "µg/mL"}, {"measurement": "RNA Concentration", "setting": "RSV-Long [6]; drug concentration 1 μg/ml", "value": 450, "unit": "ng/mL"}, {"measurement": "RNA Concentration", "setting": "RSV-Long [6]; drug concentration 20 μg/ml", "value": 225, "unit": "ng/mL"}, {"measurement": "reduction of viral RNA", "setting": "RSV-Long [6]; drug concentration increased from 1 to 20 μg/ml", "value": 2, "unit": "fold"}, {"measurement": "CC50 at 7 days", "setting": "in vitro [7]", "value": "> 100", "unit": "µg/mL"}]}, {"smiles": "O=C(/C=C/c1ccc(O)c(O)c1)O[C@H]1[C@H](O)C[C@](O)(C(=O)O)C[C@H]1OC(=O)/C=C/c1ccc(O)c(O)c1", "note": "[CJ2-27-4, 4,5-dicaffeoylquinic acid]", "values": [{"measurement": "EC50, RSV-B (Washington)", "setting": "RSV B; Hep-2 cells, CPE assay", "value": 0.218, "unit": "µg/mL"}, {"measurement": "EC50, Herpes simplex virus type 1 (MacIntyre strain)", "setting": "[8]", "value": ">50", "unit": "µg/mL"}, {"measurement": "EC50, RSV-Long (Cotton Rat adapted strain)", "setting": "[9]", "value": 5.519, "unit": "µg/mL"}, {"measurement": "EC50, Influenza A-Shangdong/09/93 (H3N2)", "setting": "[10]", "value": ">50", "unit": "µg/mL"}, {"measurement": "EC50, RSV-A2", "setting": "RSV-A2", "value": 0.521, "unit": "µg/mL"}, {"measurement": "EC50, Herpes simplex virus type 2 (MS-strain)", "setting": "[11]", "value": ">50", "unit": "µg/mL"}, {"measurement": "CC50, Hep 2", "setting": "Hep-2 cells", "value": ">200", "unit": "µg/mL"}, {"measurement": "CC50, MDCK", "setting": "MDCK cells", "value": ">200", "unit": "µg/mL"}, {"measurement": "CC50, Vero", "setting": "Vero cells", "value": ">200", "unit": "µg/mL"}, {"measurement": "EC50, RSV-Long", "setting": "RSV (Long strain); Hep-2 cells, CPE assay", "value": 0.052, "unit": "µg/mL"}]}]}
